Like-named read-outs stand apart in the source and are kept apart here.
Tests used:
His-GST-PARP7 = His-GST-PARP7 (Homo sapiens (Human), UniProt Q7Z3E1); experiment: PARP7 biochemical assay; details: read-out: PARP7 IC50
PARP2 = PARP2 (Homo sapiens (Human), UniProt Q9UGN5); experiment: PARP2 biochemical assay
[1] = system: NCI-H1373 (human lung adenocarcinoma) cells; experiment: Cell proliferation assay (CellTiter-Glo), NCI-H1373; type: cell-based; details: Homo sapiens, NCI-H1373, 144 h, read-out: NCI-H1373 GI50
[2] = system: HARA (human lung squamous cell carcinoma) cells; experiment: Cell proliferation assay (CellTiter-Glo), HARA; type: cell-based; details: Homo sapiens, 144 h; 6 days, CellTiter-Glo; read-out: HARA GI50

Chain of PARP2 (Q9UGN5 whole entry): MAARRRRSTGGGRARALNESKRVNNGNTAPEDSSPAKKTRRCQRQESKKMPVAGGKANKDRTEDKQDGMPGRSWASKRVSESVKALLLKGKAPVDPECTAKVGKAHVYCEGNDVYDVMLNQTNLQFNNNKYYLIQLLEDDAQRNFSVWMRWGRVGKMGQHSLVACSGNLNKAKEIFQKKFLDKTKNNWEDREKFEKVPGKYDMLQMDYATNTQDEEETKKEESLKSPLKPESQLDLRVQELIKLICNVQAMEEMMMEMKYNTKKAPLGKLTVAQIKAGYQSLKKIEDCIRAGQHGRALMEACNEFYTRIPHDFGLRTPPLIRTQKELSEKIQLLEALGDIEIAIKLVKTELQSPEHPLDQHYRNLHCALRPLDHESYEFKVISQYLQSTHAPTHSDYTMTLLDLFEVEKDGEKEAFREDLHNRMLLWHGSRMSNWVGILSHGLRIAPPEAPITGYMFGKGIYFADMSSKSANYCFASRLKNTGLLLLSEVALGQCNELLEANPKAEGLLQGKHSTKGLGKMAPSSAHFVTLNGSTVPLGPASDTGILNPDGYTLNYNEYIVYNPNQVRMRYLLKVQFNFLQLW
Chain of His-GST-PARP7 (Q7Z3E1 whole entry): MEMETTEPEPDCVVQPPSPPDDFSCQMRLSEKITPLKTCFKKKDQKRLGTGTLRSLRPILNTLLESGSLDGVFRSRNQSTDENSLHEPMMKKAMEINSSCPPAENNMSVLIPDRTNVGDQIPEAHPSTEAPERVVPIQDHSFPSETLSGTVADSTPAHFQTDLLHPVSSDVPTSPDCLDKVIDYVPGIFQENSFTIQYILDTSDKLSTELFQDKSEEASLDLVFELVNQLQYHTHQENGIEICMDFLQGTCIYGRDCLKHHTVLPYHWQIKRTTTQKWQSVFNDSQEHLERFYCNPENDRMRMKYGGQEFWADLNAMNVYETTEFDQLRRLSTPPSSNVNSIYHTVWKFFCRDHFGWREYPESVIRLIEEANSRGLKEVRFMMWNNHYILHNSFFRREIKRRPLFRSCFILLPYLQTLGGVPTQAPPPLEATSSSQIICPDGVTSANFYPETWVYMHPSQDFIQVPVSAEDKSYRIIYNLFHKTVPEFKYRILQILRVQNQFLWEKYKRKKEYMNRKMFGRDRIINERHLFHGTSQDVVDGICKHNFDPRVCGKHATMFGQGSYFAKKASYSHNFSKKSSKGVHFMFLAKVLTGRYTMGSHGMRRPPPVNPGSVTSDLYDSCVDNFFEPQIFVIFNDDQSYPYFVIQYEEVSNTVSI

Molecule: 4-(4-Fluoro-3-(4-(5-(trifluoromethyl)pyrimidin-2-yl)piperazine-1-carbonyl)benzyl)-6-isobutylphthalazin-1(2H)-one [Example 44]
- IC50 (His-GST-PARP7): < 0.05 µM
- IC50 (PARP2; read-out: PARP2 IC50): 0.05 to 0.1 µM

Molecule: 6-(4-(2-Fluoro-5-((4-oxo-7-(prop-2-yn-1-yloxy)-3,4-dihydrophthalazin-1-yl)methyl)benzoyl)piperazin-1-yl)nicotinonitrile [Example 26]
- IC50 (His-GST-PARP7): < 0.05 µM
- IC50 (PARP2; read-out: PARP2 IC50): 0.1 to 0.5 µM

Molecule: N#Cc1ccc(N2CCN(C(=O)c3cc(Cc4n[nH]c(=O)c5ccc(OC6CC6)cc45)ccc3F)CC2)nc1 [Example 13, 6-(4-(5-((7-Cyclopropoxy-4-oxo-3,4-dihydrophthalazin-1-yl)methyl)-2-fluorobenzoyl)piperazin-1-yl)nicotinonitrile]
- IC50 (His-GST-PARP7): < 0.05 µM
- GI50 [1]: 0.1 to 1 µM
- IC50 (PARP2): 0.1 to 0.5 µM

Molecule: CNc1ccc2c(=O)[nH]nc(Cc3ccc(F)c(C(=O)N4CCN(c5ccc(C#N)cn5)CC4)c3)c2c1 [Example 16, 6-(4-(2-fluoro-5-((7-(methylamino)-4-oxo-3,4-dihydrophthalazin-1-yl)methyl)benzoyl)piperazin-1-yl)nicotinonitrile]
- IC50 (His-GST-PARP7): < 0.05 µM
- GI50 [1]: 1 to 5 µM
- IC50 (PARP2; read-out: PARP2 IC50): < 0.05 µM

Molecule: N#Cc1ccc(N2CCN(C(=O)c3cc(Cc4n[nH]c(=O)c5ccc(N6CC(F)(F)C6)cc45)ccc3F)CC2)nc1 [Example 18, 6-(4-(5-((7-(3,3-Difluoroazetidin-1-yl)-4-oxo-3,4-dihydrophthalazin-1-yl)methyl)-2-fluorobenzoyl)piperazin-1-yl)nicotinonitrile]
- IC50 (His-GST-PARP7): < 0.05 µM
- IC50 (PARP2; read-out: PARP2 IC50): 0.1 to 0.5 µM

Molecule: N#Cc1ccc(N2CCN(C(=O)c3cc(Cc4n[nH]c(=O)c5ccc(NCC6CC6)cc45)ccc3F)CC2)nc1 [Example 20, 6-(4-(5-((7-(cyclopropylmethylamino)-4-oxo-3,4-dihydrophthalazin-1-yl)methyl)-2-fluorobenzoyl)piperazin-1-yl)nicotinonitrile]
- IC50 (His-GST-PARP7): < 0.05 µM
- GI50 ([1]; 6 days, CellTiter-Glo): 0.1 to 1 µM
- IC50 (PARP2; read-out: PARP2 IC50): < 0.05 µM

Molecule: N#Cc1ccc(N2CCN(C(=O)c3cc(Cc4n[nH]c(=O)c5ccc(N6CC7(CC(O)C7)C6)cc45)ccc3F)CC2)nc1 [Example 23, 6-(4-(2-Fluoro-5-((7-(6-hydroxy-2-azaspiro[3.3]heptan-2-yl)-4-oxo-3,4-dihydrophthalazin-1-yl)methyl)benzoyl)piperazin-1-yl)nicotinonitrile]
- IC50 (His-GST-PARP7): < 0.05 µM
- GI50 ([1]; 6 days, CellTiter-Glo): > 5 µM
- IC50 (PARP2; read-out: PARP2 IC50): 0.5 to 2 µM

Molecule: N#Cc1ccc(N2CCN(C(=O)c3cc(Cc4n[nH]c(=O)c5ccc(C#CC(F)(F)F)cc45)ccc3F)CC2)nc1 [Example 24, 6-(4-(2-Fluoro-5-((4-oxo-7-(3,3,3-trifluoroprop-1-ynyl)-3,4-dihydrophthalazin-1-yl)methyl)benzoyl)piperazin-1-yl)nicotinonitrile]
- IC50 (His-GST-PARP7): < 0.05 µM
- IC50 (PARP2; read-out: PARP2 IC50): 0.1 to 0.5 µM

Molecule: N#Cc1ccc(N2CCN(C(=O)c3cc(Cc4n[nH]c(=O)c5ccc(CCC(F)(F)F)cc45)ccc3F)CC2)nc1 [Example 25, 6-(4-(2-Fluoro-5-((4-oxo-7-(3,3,3-trifluoropropyl)-3,4-dihydrophthalazin-1-yl)methyl)benzoyl)piperazin-1-yl)nicotinonitrile]
- IC50 (PARP2; read-out: PARP2 IC50): 0.1 to 0.5 µM

Molecule: N#Cc1ccc(N2CCN(C(=O)c3cc(Cc4n[nH]c(=O)c5ccc(/C=C/C(F)(F)F)cc45)ccc3F)CC2)nc1 [Example 27, (E)-6-(4-(2-Fluoro-5-((4-oxo-7-(3,3,3-trifluoroprop-1-enyl)-3,4-dihydrophthalazin-1-yl)methyl)benzoyl)piperazin-1-yl)nicotinonitrile]
- IC50 (PARP2): 0.05 to 0.1 µM

Molecule: N#Cc1ccc(N2CCN(C(=O)c3cc(Cc4n[nH]c(=O)c5ccc(C#CC6CC6)cc45)ccc3F)CC2)nc1 [Example 37, 6-(4-(5-((7-(Cyclopropylethynyl)-4-oxo-3,4-dihydrophthalazin-1-yl)methyl)-2-fluorobenzoyl)piperazin-1-yl)nicotinonitrile]
- IC50 (His-GST-PARP7): 0.1 to 0.5 µM
- IC50 (PARP2; read-out: PARP2 IC50): 0.5 to 2 µM

Molecule: N#Cc1ccc(N2CCN(C(=O)c3cc(Cc4n[nH]c(=O)c5ccc(C6CC6)cc45)ccc3F)CC2)nc1 [Example 40, 6-(4-(5-((7-Cyclopropyl-4-oxo-3,4-dihydrophthalazin-1-yl)methyl)-2-fluorobenzoyl)piperazin-1-yl)nicotinonitrile]
- IC50 (His-GST-PARP7): < 0.05 µM
- IC50 (PARP2; read-out: PARP2 IC50): 0.1 to 0.5 µM

Molecule: CC(C)(C)Cc1ccc2c(=O)[nH]nc(Cc3ccc(F)c(C(=O)N4CCN(c5ccc(C#N)cn5)CC4)c3)c2c1 [Example 41, 6-(4-(2-Fluoro-5-((7-neopentyl-4-oxo-3,4-dihydrophthalazin-1-yl)methyl)benzoyl)piperazin-1-yl)nicotinonitrile]
- IC50 (His-GST-PARP7): 0.1 to 0.5 µM
- IC50 (PARP2; read-out: PARP2 IC50): 0.1 to 0.5 µM

Molecule: CCc1ccc2c(=O)[nH]nc(Cc3ccc(F)c(C(=O)N4CCN(c5ncc(C(F)(F)F)cn5)CC4)c3)c2c1 [Example 43, 6-Ethyl-4-(4-fluoro-3-(4-(5-(trifluoromethyl)pyrimidin-2-yl)piperazine-1-carbonyl)benzyl)phthalazin-1(2H)-one]
- IC50 (PARP2; read-out: PARP2 IC50): 0.1 to 0.5 µM

Molecule: O=C(c1cc(Cc2n[nH]c(=O)c3ccc(C4CC4)cc23)ccc1F)N1CCN(c2ncc(C(F)(F)F)cn2)CC1 [Example 45, 6-Cyclopropyl-4-(4-fluoro-3-(4-(5-(trifluoromethyl)pyrimidin-2-yl)piperazine-1-carbonyl)benzyl)phthalazin-1(2H)-one]
- IC50 (His-GST-PARP7): < 0.05 µM
- IC50 (PARP2; read-out: PARP2 IC50): 0.1 to 0.5 µM

Molecule: CN(C)CC#Cc1ccc2c(=O)[nH]nc(Cc3ccc(F)c(C(=O)N4CCN(c5ncc(C(F)(F)F)cn5)CC4)c3)c2c1 [Example 46, 6-(3-(Dimethylamino)prop-1-yn-1-yl)-4-(4-fluoro-3-(4-(5-(trifluoromethyl)pyrimidin-2-yl)piperazine-1-carbonyl)benzyl)phthalazin-1(2H)-one]
- IC50 (His-GST-PARP7): < 0.05 µM
- IC50 (PARP2; read-out: PARP2 IC50): 0.1 to 0.5 µM

Molecule: O=C(c1cc(Cc2n[nH]c(=O)c3ccc(C#CC4CC4)cc23)ccc1F)N1CCN(c2ncc(C(F)(F)F)cn2)CC1 [Example 47, 6-(Cyclopropylethynyl)-4-(4-fluoro-3-(4-(5-(trifluoromethyl)pyrimidin-2-yl)piperazine-1-carbonyl)benzyl)phthalazin-1(2H)-one]
- IC50 (His-GST-PARP7): 0.1 to 0.5 µM
- IC50 (PARP2; read-out: PARP2 IC50): 0.5 to 2 µM

Molecule: O=C(c1cc(Cc2n[nH]c(=O)c3ccc(C#CC(F)(F)F)cc23)ccc1F)N1CCN(c2ncc(C(F)(F)F)cn2)CC1 [Example 49, 4-(4-Fluoro-3-(4-(5-(trifluoromethyl)pyrimidin-2-yl)piperazine-1-carbonyl)benzyl)-6-(3,3,3-trifluoroprop-1-yn-1-yl)phthalazin-1(2H)-one]
- IC50 (His-GST-PARP7): 0.1 to 0.5 µM
- IC50 (PARP2; read-out: PARP2 IC50): 0.1 to 0.5 µM

Molecule: CC#Cc1ccc2c(=O)[nH]nc(Cc3ccc(F)c(C(=O)N4CCN(c5ccc(C#N)cn5)CC4C)c3)c2c1 (centres unmarked) [Example 61, 6-(4-(2-Fluoro-5-((4-oxo-7-(prop-1-yn-1-yl)-3,4-dihydrophthalazin-1-yl)methyl)benzoyl)-3-methylpiperazin-1-yl)nicotinonitrile]
- IC50 (His-GST-PARP7): < 0.05 µM
- IC50 (PARP2; read-out: PARP2 IC50): < 0.05 µM

Molecule: CC#Cc1ccc2c(=O)[nH]nc(Cc3ccc(F)c(C(=O)N4C5CCC4CN(c4ccc(C#N)cn4)C5)c3)c2c1 [Example 62, 6-(8-(2-Fluoro-5-((4-oxo-7-(prop-1-yn-1-yl)-3,4-dihydrophthalazin-1-yl)methyl)benzoyl)-3,8-diazabicyclo[3.2.1]octan-3-yl)nicotinonitrile]
- IC50 (His-GST-PARP7): < 0.05 µM
- IC50 (PARP2): 0.5 to 2 µM

Molecule: CC#Cc1ccc2c(=O)[nH]nc(Cc3ccc(F)c(C(=O)N4CCN(c5ccc(C#N)cn5)C(C)C4)c3)c2c1 (centres unmarked) [Example 72, 6-(4-(2-Fluoro-5-((4-oxo-7-(prop-1-ynyl)-3,4-dihydrophthalazin-1-yl)methyl)benzoyl)-2-methylpiperazin-1-yl)nicotinonitrile]
- IC50 (His-GST-PARP7): < 0.05 µM
- IC50 (PARP2; read-out: PARP2 IC50): 0.1 to 0.5 µM

Molecule: O=C(c1cc(Cc2n[nH]c(=O)c3ccc(OC4CCC4)cc23)ccc1F)N1CCN(c2ncc(C3CC3)cn2)CC1 [Example 162, 6-cyclobutoxy-4-(3-(4-(5-cyclopropylpyrimidin-2-yl)piperazine-1-carbonyl)-4-fluorobenzyl)phthalazin-1(2H)-one]
- GI50 [2]: 0.1 to 1 µM
- IC50 (His-GST-PARP7): < 0.05 µM
- GI50 ([1]; 6 days, CellTiter-Glo): < 0.1 µM

Molecule: CC(CC(=O)N1CCN(c2ccc(C#N)cn2)CC1)NCc1n[nH]c(=O)c2ccc(OC3CC3)cc12 (centres unmarked) [Example 196, 6-(4-(3-(((7-Cyclopropoxy-4-oxo-3,4-dihydrophthalazin-1-yl)methyl)amino)butanoyl)piperazin-1-yl)nicotinonitrile]
- GI50 [2]: 1 to 5 µM
- IC50 (His-GST-PARP7): < 0.05 µM
- GI50 ([1]; 6 days, CellTiter-Glo): 1 to 5 µM

Molecule: CC#Cc1ccc2c(=O)[nH]nc(Cc3ccc(F)c(C(=O)NCCN(CC)c4ccc(C#N)cn4)c3)c2c1 [Example 197, N-(2-((5-cyanopyridin-2-yl)(ethyl)amino)ethyl)-2-fluoro-5-((4-oxo-7-(prop-1-yn-1-yl)-3,4-dihydrophthalazin-1-yl)methyl)benzamide]
- IC50 (His-GST-PARP7): < 0.05 µM
- IC50 (PARP2; read-out: PARP2 IC50): > 2 µM

Molecule: CC#Cc1ccc2c(=O)[nH]nc(Cc3ccc(F)c(C(=O)N(C)CCN(CC)c4ccc(C#N)cn4)c3)c2c1 [Example 198, N-(2-((5-Cyanopyridin-2-yl)(ethyl)amino)ethyl)-2-fluoro-N-methyl-5-((4-oxo-7-(prop-1-yn-1-yl)-3,4-dihydrophthalazin-1-yl)methyl)benzamide]
- IC50 (His-GST-PARP7): < 0.05 µM
- IC50 (PARP2; read-out: PARP2 IC50): > 2 µM

Molecule: N#Cc1ccc(N2CCN(c3noc4c(Cc5n[nH]c(=O)c6ccc(OC7CCC7)cc56)cccc34)CC2)nc1 [Example 208, 6-(4-(7-((7-Cyclobutoxy-4-oxo-3,4-dihydrophthalazin-1-yl)methyl)benzo[d]isoxazol-3-yl)piperazin-1-yl)nicotinonitrile]
- GI50 [2]: 1 to 5 µM
- IC50 (His-GST-PARP7): 0.1 to 0.5 µM
- GI50 ([1]; 6 days, CellTiter-Glo): 1 to 5 µM

Molecule: N#Cc1ccc(N2CCN(c3noc4ccc(Cc5n[nH]c(=O)c6ccc(OC7CCC7)cc56)cc34)CC2)nc1 [Example 211, 6-(4-(5-((7-cyclobutoxy-4-oxo-3,4-dihydrophthalazin-1-yl)methyl)benzo[d]isoxazol-3-yl)piperazin-1-yl)nicotinonitrile]
- GI50 [2]: 1 to 5 µM
- IC50 (His-GST-PARP7): 0.1 to 0.5 µM
- GI50 ([1]; 6 days, CellTiter-Glo): 1 to 5 µM
